Values quoted from earlier work as cited in patent US7141382B1, “Methods for detection of IL-18 as an early marker for diagnosis of acute renal failure and predictor of mortality” (priority 2004, dated 2006).
Where two headings read alike, the source gives them in different places.

Tested on: freshly isolated proximal tubules from C57BL/6 mice
Conditions: P<0.01 vs. hypoxia, n=6

For `CC(C)[C@H](NC(=O)c1ccc2ccccc2n1)C(=O)N[C@@H](CC(=O)O)C(=O)COc1c(F)cccc1F` [OPH-001], the LDH release (25 minutes of hypoxic injury, hypoxic tubules preincubated with OPH-001 (100 μM), normoxic 11%±1%, vehicle (DMSO) 38%±6%) is given as 22%±1%.

For “recombinant IL-18: exogenous recombinant IL-18 added to the proximal tubule suspension”, the LDH release (sublethal (12 minutes) hypoxia, tubules preincubated with recombinant IL-18 (1 μg per 6 ml of tubule suspension), normoxic 10%±1%, vehicle (saline) 13%±1%) is listed as 18%±1%.
